The values that follow come from patent publication US11590116B2 (THERAVANCE BIOPHARMA R&D IP, LLC, priority 2019, dated 2023).

Assay [1] deals with TGF-β-stimulated SMAD3 phosphorylation in BEAS-2B cells. In words: Cellular ALK5 potency assay, inhibition of TGF-β stimulated pSMAD3 formation in BEAS-2B cells. It is filed as cell-based. The settings on record: Homo sapiens, read-out: BEAS2B pIC50 (converted). The method, boiled down: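 Potency is reported as pIC50, derived from concentration-dependent reduction of pSMAD3 AlphaLISA signal against TGF-β-stimulated cells without compound. BEAS-2B cells received compound for 1 h before a 30-min stimulation with 10 ng/mL TGF-β.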

In assay [2] the target is T1, recombinant human ALK5 (TGF-βR1) protein (Homo sapiens, UniProt P36897).
T1 construct: purchased Life Technologies PR9075A
T1 sequence (P36897 34-503): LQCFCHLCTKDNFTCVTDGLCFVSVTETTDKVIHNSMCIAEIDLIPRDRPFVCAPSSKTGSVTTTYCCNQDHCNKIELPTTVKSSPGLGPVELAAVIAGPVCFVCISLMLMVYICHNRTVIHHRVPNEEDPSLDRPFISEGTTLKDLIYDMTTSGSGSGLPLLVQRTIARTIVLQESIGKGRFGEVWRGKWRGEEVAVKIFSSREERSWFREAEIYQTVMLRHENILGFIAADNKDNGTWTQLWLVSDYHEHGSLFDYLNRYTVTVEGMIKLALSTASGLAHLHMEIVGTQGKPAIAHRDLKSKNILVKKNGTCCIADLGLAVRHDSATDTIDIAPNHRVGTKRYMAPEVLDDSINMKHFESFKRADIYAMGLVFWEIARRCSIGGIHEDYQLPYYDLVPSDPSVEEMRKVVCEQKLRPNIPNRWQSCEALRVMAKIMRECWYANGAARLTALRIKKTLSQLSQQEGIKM
Kind of assay: Biochemical ALK5 (TGF-βR1) assay to measure pKi (LANCE Ultra ULight kinase assay). The settings on record: apparent pKi from pIC50 by Cheng-Prusoff, read-out: ALK5 pKi (converted). An outline of the steps: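 After a 60 min room-temperature preincubation of ALK5 with compound, phosphorylation proceeds 60 min at 37 °C on ATP addition (125 μM as 5× stock). Detection: Eu-labelled phospho-Thr1342 Topo IIα antibody in EDTA buffer, pH 7.0; emission 665 nm.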
(In TR-FRET formats the signal depends on donor and acceptor labels being close together.)

[3] abbreviates: inhibition of TGF-β stimulated pSMAD3 formation, BEAS-2B cells.

Molecules are shown by their SMILES. Like-named read-outs stand apart in the source and are kept apart here.

Regarding `Cc1cccc(-c2n[nH]cc2-c2ccc3ncc(N4CCC(C)(O)CC4)cc3n2)n1` [Compound 617, 4-methyl-1-[6-[3-(6-methyl-2-pyridyl)-1H-pyrazol-4-yl]-1,5-naphthyridin-3-yl]piperidin-4-ol], the IC50 in assay [1] (setting [3]) is under 20 nM. Also, the Ki in assay [2] was under 0.0316 nM.
The corresponding values for `Cc1cccc(-c2n[nH]cc2-c2ccc3ncc(N4CCOCC4)cc3n2)n1` [Compound 78, 4-[6-[3-(6-methyl-2-pyridyl)-1H-pyrazol-4-yl]-1,5-naphthyridin-3-yl]morpholine] are under 20 nM and under 0.0316 nM.
As to `Cc1cccc(-c2n[nH]cc2-c2ccc3ncc(-c4nnn5c4NCC5)cc3n2)n1` [Compound 5, 7-(5,6-dihydro-4H-imidazo[1,2-c]triazol-3-yl)-2-[3-(6-methyl-2-pyridyl)-1H-pyrazol-4-yl]-1,5-naphthyridine], in assay [1] (setting [3]), the IC50 is 25.1 to 158 nM. Also, the Ki in assay [2] is under 0.0316 nM.
As for `Cc1cccc(-c2nnn(Cc3ccccc3)c2-c2ccc3ncc(NCCN4CCN(C(C)C)CC4)cc3n2)n1` [Compound 373, 6-(1-benzyl-4-(6-methylpyridin-2-yl)-1H-1,2,3-triazol-5-yl)-N-(2-(4-isopropylpiperazin-1-yl)ethyl)-1,5-naphthyridin-3-amine], the IC50 in assay [1] (setting [3]) was 200 to 1260 nM. In addition, in assay [2], the Ki is 0.0398 to 0.316 nM.
The corresponding values for `Cc1nc(-c2[nH]cnc2-c2ccc3ncc(-c4cnn(C5CCCNC5)c4)cc3n2)ccc1F` (stereo not shown) [Compound 413, 2-[5-(5-fluoro-6-methyl-2-pyridyl)-1H-imidazol-4-yl]-7-[1-(3-piperidyl)pyrazol-4-yl]-1,5-naphthyridine] are 25.1 to 158 nM and 0.0398 to 0.316 nM.
For the molecule `Cc1nc(-c2n[nH]cc2-c2ccc3ncc(-c4cc5n(n4)CCCN5)cc3n2)ccc1F` [Compound 651, 2-[3-(5-fluoro-6-methyl-2-pyridyl)-1H-pyrazol-4-yl]-7-(4,5,6,7-tetrahydropyrazolo[1,5-a]pyrimidin-2-yl)-1,5-naphthyridine], the IC50 in assay [1] (setting [3]) is under 20 nM. The Ki in assay [2] was under 0.0316 nM.
The corresponding values for `Cc1cccc(-c2[nH]cnc2-c2ccc3ncc(NC(=O)CC4CNC4)cc3c2)n1` [Compound 255, 2-(azetidin-3-yl)-N-[6-[5-(6-methyl-2-pyridyl)-1H-imidazol-4-yl]-3-quinolyl]acetamide] are 200 to 1260 nM and 0.0398 to 0.316 nM.
The corresponding values for `CNC(=O)c1cnc2ccc(-c3cn[nH]c3-c3cccc(C)n3)nc2c1` [Compound 675, N-methyl-6-[5-(6-methyl-2-pyridyl)-lH-pyrazol-4-yl]-1,5-naphthyridine-3-carboxamide] are 25.1 to 158 nM and 0.0398 to 0.316 nM.
As to `Cc1cccc(-c2[nH]cnc2-c2ccc3ncc(-c4ccc(C(=O)OC5CNC5)cn4)cc3c2)n1` [Compound 1027, azetidin-3-yl 6-[6-[5-(6-methyl-2-pyridyl)-1H-imidazol-4-yl]-3-quinolyl]pyridine-3-carboxylate], in assay [1] (setting [3]), the IC50 is 25.1 to 158 nM. Moreover, the Ki in assay [2] was 0.0398 to 0.316 nM.
For `Cc1cccc(-c2n[nH]cc2-c2ccc3ncc(-c4cnn(C5COC5)c4)cc3n2)n1` [Compound 669, 2-[3-(6-methyl-2-pyridyl)-1H-pyrazol-4-yl]-7-[1-(oxetan-3-yl)pyrazol-4-yl]-1,5-naphthyridine], the IC50 in assay [1] (setting [3]) was under 20 nM. Also, the Ki in assay [2] is under 0.0316 nM.
Turning to `COC(Cc1ccnc2ccc(-c3c[nH]nc3-c3cccc(C)n3)nc12)OC` [Compound 860, 8-(2,2-dimethoxyethyl)-2-[3-(6-methyl-2-pyridyl)-1H-pyrazol-4-yl]-1,5-naphthyridine], in assay [1] (setting [3]), the IC50 is 25.1 to 158 nM. For the same molecule, in assay [2], the Ki is 0.398 to 3.16 nM.
As for `Cc1nc(-c2nc3ccccn3c2-c2ccc3ncc(-c4cn5c(n4)CNCC5)cc3n2)ccc1F` [Compound 555, 2-[2-(5-fluoro-6-methyl-2-pyridyl)imidazo[1,2-a]pyridin-3-yl]-7-(5,6,7,8-tetrahydroimidazo[1,2-a]pyrazin-2-yl)-1,5-naphthyridine], in assay [1] (setting [3]), the IC50 is 25.1 to 158 nM. In assay [2], the Ki was 0.0398 to 0.316 nM.
Consider `Cc1cccc(-c2[nH]cnc2-c2ccc3ncc(Nc4nc5n(n4)CCNC5)cc3c2)n1` [Compound 338, 6-(5-(6-methylpyridin-2-yl)-1H-imidazol-4-yl)-N-(5,6,7,8-tetrahydro-[1,2,4]triazolo[1,5-a]pyrazin-2-yl)quinolin-3-amine], for which, in assay [1] (BEAS-2B), the IC50 was 200 to 1260 nM. Besides, the Ki in assay [2] is 0.0398 to 0.316 nM.
For `Cc1cccc(-c2[nH]cnc2-c2ccc3ncc(-c4cnc(C(=O)O)nc4)cc3c2)n1` [Compound 1142, 5-[6-[5-(6-methyl-2-pyridyl)-1H-imidazol-4-yl]-3-quinolyl]pyrimidine-2-carboxylic acid], in assay [1] (setting [3]), the IC50 is 1580 to 10000 nM. Besides, the Ki in assay [2] was 0.398 to 3.16 nM.
On to `Cc1cccc(-c2[nH]cnc2-c2ccc3ncc(C4=CCCCC4)cc3c2)n1` [Compound 147, 3-(cyclohexen-1-yl)-6-[5-(6-methyl-2-pyridyl)-1H-imidazol-4-yl]quinoline], for which, in assay [1] (setting [3]), the IC50 was 25.1 to 158 nM. In addition, in assay [2], the Ki is 0.0398 to 0.316 nM.
On to `Cc1cccc(-c2n[nH]cc2-c2ccc3ncc(-c4cc(C)nn4C)cc3n2)n1` [Compound 596, 7-(2,5-dimethylpyrazol-3-yl)-2-[3-(6-methyl-2-pyridyl)-1H-pyrazol-4-yl]-1,5-naphthyridine], for which the IC50 in assay [1] (setting [3]) is under 20 nM. In assay [2], the Ki is under 0.0316 nM.
The corresponding values for `Cc1cccc(-c2[nH]cnc2-c2ccc3ncc(-c4csc(C(=O)OC5CCNCC5)n4)cc3c2)n1` [Compound 1146, 4-piperidyl 4-[6-[5-(6-methyl-2-pyridyl)-1H-imidazol-4-yl]-3-quinolyl]thiazole-2-carboxylate] are 25.1 to 158 nM and under 0.0316 nM.
With `Cc1cccc(-c2n[nH]cc2-c2ccc3ncc(-c4c[nH]nc4C(F)(F)F)cc3n2)n1` [Compound 484, 2-[3-(6-methyl-2-pyridyl)-1H-pyrazol-4-yl]-7-[3-(trifluoromethyl)-1H-pyrazol-4-yl]-1,5-naphthyridine], the IC50 in assay [1] (setting [3]) was under 20 nM. Further, the Ki in assay [2] was 0.0398 to 0.316 nM.
In the case of `Cc1cccc(-c2n[nH]cc2-c2ccc3ncc(-c4cn(-c5ccccc5)nn4)cc3n2)n1` [Compound 111, 2-[3-(6-methyl-2-pyridyl)-1H-pyrazol-4-yl]-7-(1-phenyltriazol-4-yl)-1,5-naphthyridine], in assay [1] (setting [3]), the IC50 was under 20 nM. In assay [2], the Ki was 0.0398 to 0.316 nM.
On to `Cc1cccc(-c2[nH]cnc2-c2ccc3ncc(NCCN4CCC(C(=O)O)CC4)cc3c2)n1` [Compound 670, 1-[2-[[6-[5-(6-methyl-2-pyridyl)-1H-imidazol-4-yl]-3-quinolyl]amino]ethyl]piperidine-4-carboxylic acid], for which, in assay [1] (setting [3]), the IC50 is 200 to 1260 nM. Moreover, the Ki in assay [2] was 0.0398 to 0.316 nM.
Consider `Cc1cccc(-c2[nH]cnc2-c2ccc3ncc(-c4ncc(C5=CCNC5)s4)cc3c2)n1` [Compound 1118, 5-(2,5-dihydro-1H-pyrrol-3-yl)-2-[6-[5-(6-methyl-2-pyridyl)-1H-imidazol-4-yl]-3-quinolyl]thiazole], for which, in assay [1] (setting [3]), the IC50 was under 20 nM. The Ki in assay [2] is 0.0398 to 0.316 nM.
The corresponding values for `Cc1cccc(-c2[nH]cnc2-c2ccc3ncc(C(=O)O[C@@H]4CCCC[C@H]4N)cc3c2)n1` [Compound 880, (1R,2R)-2-aminocyclohexyl 6-(5-(6-methylpyridin-2-yl)-1H-imidazol-4-yl)quinoline-3-carboxylate] are 25.1 to 158 nM and 0.398 to 3.16 nM.
The corresponding values for `Cc1cccc(-c2n[nH]cc2-c2ccc3ncc(N4CC(C)(N(C)C)C4)cc3n2)n1` [Compound 586, N,N,3-trimethyl-1-[6-[3-(6-methyl-2-pyridyl)-1H-pyrazol-4-yl]-1,5-naphthyridin-3-yl]azetidin-3-amine] are 25.1 to 158 nM and under 0.0316 nM.
The corresponding values for `Cc1cccc(-c2n[nH]cc2-c2ccc3ncc(-c4nn[nH]n4)cc3n2)n1` [Compound 177, 2-[3-(6-methyl-2-pyridyl)-1H-pyrazol-4-yl]-7-(2H-tetrazol-5-yl)-1,5-naphthyridine] are 1580 to 10000 nM and 0.0398 to 0.316 nM.
In the case of `Cc1cccc(-c2[nH]ncc2-c2ccc3ncc(C(=O)N4CC(N5CCOCC5)C4)cc3n2)n1` [Compound 352, [6-[5-(6-methyl-2-pyridyl)-1H-pyrazol-4-yl]-1,5-naphthyridin-3-yl]-(3-morpholinoazetidin-1-yl)methanone], the IC50 in assay [1] (setting [3]) is 200 to 1260 nM. In addition, in assay [2], the Ki was 3.98 to 31.6 nM.
The corresponding values for `Cc1cccc(-c2[nH]cnc2-c2ccc3ncc(-c4ccc(C(=O)O[C@@H]5CCNC5)cn4)cc3c2)n1` [Compound 1111, [(3R)-pyrrolidin-3-yl] 6-[6-[5-(6-methyl-2-pyridyl)-1H-imidazol-4-yl]-3-quinolyl]pyridine-3-carboxylate] are 25.1 to 158 nM and under 0.0316 nM.
